Measurements reported in patent publication US20260137701A1, “CHOLESTENOIC ACID (CA) AND A SULFATED DERIVATIVE THEREOF, 3[BETA]-SULFATE-5-CHOLESTENOIC ACID (CA3S), AS ENDOGENOUS EPIGENETIC REGULATORS” (priority 2022, published 2026).
“And” between values parts separate entries of the source, which are not always exact repeats. Equal entries are not always repeated.

System: HepG-2 cells
Test: Whole genome bisulfite sequencing (WGBS), differentially methylated regions
Type: cell-based, human
Details: for number of DMRs, whole genome, hyper-methylated / number of DMRs, whole genome, hypo-methylated / number of DMRs, whole genome, total: 20 μM CA vs vehicle
Procedure: After culturing HepG-2 cells in DMEM medium with HG for 72 hours followed by treating with 20 μM CA for 0, 3, 6, 12, and 24 hours, genomic DNA from 5×10^7 cells were extracted using QIAamp® DNA Mini Kit (QIAGEN, Hilden, Germany). Each sample, 6 μg, was sent to CD Genomics Co., Ltd (New York, USA) for analysis of WGBS. Total RNA was isolated using the Promega SV total RNA isolation system (Madison, WI, USA) with DNase treatment. Each sample, 2 μg, were sent to CD Genomics Co., Ltd (New York, USA) for analysis of RNA sequencing. The same samples, 2 μg, was used for the first-strand cDNA synthesis as recommended by the manufacturer (Invitrogen, Carlsbad, CA). RT-qPCR was performed using SYBR Green as the indicator on ABI 7500 Fast Real-Time PCR System (Applied Biosystems, Foster City, CA). Amplifications of j-actin or GAPDH were used as internal controls. Relative messenger RNA (mRNA) expression was quantified with the comparative cycle threshold (Ct) method using a sutiable primer set and was expressed as 2-ΔΔCt as described previously.
Each sample, 1 μg of genomic DNA was fragmented by sonication to a mean size of approximately 200-400 bp, and subsequently used for WGBS library construction using Acegen Bisulfite-Seq Library Prep Kit (Acegen) following the manufacturer's instructions. The methylated adapter-ligated DNAs were purified using 0.8×Agencourt AMPure™ XP magnetic beads and subjected to bisulfite conversion by ZYMO EZ DNA Methylation-Gold™ Kit (Zymo Research Corporation, CA, USA). The converted DNAs were then amplified using 25 μl KAPA HiFi™ HotStart Uracil+ ReadyMix (2×) and 8-bp index primers with a final concentration of 1 μM each. The constructed WGBS libraries were then analyzed by Agilent 2100 Bioanalyzer and quantified by a Qubit fluorometer with Quant-iT™ dsDNA HS Assay Kit (Invitrogen), and finally sequenced on Illumina® Hiseq X™ Ten sequencer. After the preparation of the library, Qubit 2.0 and Agilent 2100 were used respectively to detect the concentration of the library and the Insert Size, and the effective concentration (>2 nM) of the library was quantitatively determined by Q-PCR to ensure the library quality.
Samples were sequenced using the Illumina® HiSeq sequencing platform. Raw data generated on the sequencing platform contained a small percentage of low-quality data, which was then filtered to get high-quality data. Bsmap software was used to perform alignments of bisulfite-treated reads to a reference genome (GRCh37). Metilene software was used to identify differentially methylated regions (DMRs). DAVID software (website located at david.ncifcrf.gov/) was used to test the statistical enrichment of DMR related genes in the Gene Ontology (GO) and Kyoto Encyclopedia of Genes and Genomes (KEGG) pathways.

CC(CCC[C@@H](C)[C@H]1CC[C@H]2[C@@H]3CC=C4C[C@@H](O)CC[C@]4(C)[C@H]3CC[C@]12C)C(=O)O (stereo partly drawn) [CA, 3β-hydroxy-5-cholestenoic acid]
number of DMRs, whole genome, hyper-methylated (3 hours): 11,818 | number of DMRs, whole genome, hypo-methylated (3 hours): 215,747 | number of DMRs, whole genome, total (3 hours): 227,565 | number of DMRs, whole genome, hyper-methylated (6 hours): 10,537 | number of DMRs, whole genome, hypo-methylated (6 hours): 497,685 | number of DMRs, whole genome, total (6 hours): 508,222 | number of DMRs, whole genome, hyper-methylated (12 hours): 14,658 | number of DMRs, whole genome, hypo-methylated (12 hours): 544,916 | number of DMRs, whole genome, total (12 hours): 559,574 | number of DMRs, whole genome, hyper-methylated (24 hours): 8,808 | number of DMRs, whole genome, hypo-methylated (24 hours): 679,051 | number of DMRs, whole genome, total (24 hours): 687,859 | DMR (Methylation %) ADRA1A promoter region (20 μM CA, 3 h): −30.28% | DMR (Methylation %) ADRA1B promoter region (20 μM CA, 3 h): 0% | DMR (Methylation %) ADRA1 promoter region (20 μM CA, 3 h): −30.28% | DMR (Methylation %) BCL6 promoter region (20 μM CA, 3 h): −20.42% | DMR (Methylation %) CACNA1D promoter region (20 μM CA, 3 h): −55.12% | DMR (Methylation %) CALML3 promoter region (20 μM CA, 3 h): −27.06% and −27.05% | DMR (Methylation %) CALML4 promoter region (20 μM CA, 3 h): −21.08% | DMR (Methylation %) CAMKK2 promoter region (20 μM CA, 3 h): 0% | DMR (Methylation %) COX7B promoter region (20 μM CA, 3 h): −30.9% | DMR (Methylation %) COX8A promoter region (20 μM CA, 3 h): −25.87% | DMR (Methylation %) CPT1C promoter region (20 μM CA, 3 h): −18.8% | DMR (Methylation %) CREB3L4 promoter region (20 μM CA, 3 h): 0% | DMR (Methylation %) CYP1A1 promoter region (20 μM CA, 3 h): −30.07% | DMR (Methylation %) ESR2 promoter region (20 μM CA, 3 h): 0% | DMR (Methylation %) FBP1 promoter region (20 μM CA, 3 h): 0% | DMR (Methylation %) FGF1 promoter region (20 μM CA, 3 h): −54.6% | DMR (Methylation %) FGF8 promoter region (20 μM CA, 3 h): −19.97% | DMR (Methylation %) FGFR2 promoter region (20 μM CA, 3 h): −26.28% | DMR (Methylation %) LDHA promoter region (20 μM CA, 3 h): −29.00% | DMR (Methylation %) LDHAL6A promoter region (20 μM CA, 3 h): 0% | DMR (Methylation %) LDHC promoter region (20 μM CA, 3 h): −20.18% | DMR (Methylation %) LEP promoter region (20 μM CA, 3 h): 0% | DMR (Methylation %) MIR29A promoter region (20 μM CA, 3 h): −15.46% | DMR (Methylation %) MIRLET7B promoter region (20 μM CA, 3 h): 0% | DMR (Methylation %) MTOR promoter region (20 μM CA, 3 h): −20.34% | DMR (Methylation %) NTRK3 promoter region (20 μM CA, 3 h): 0% | DMR (Methylation %) PDHA2 promoter region (20 μM CA, 3 h): 0% | DMR (Methylation %) PDHB promoter region (20 μM CA, 3 h): −21.86% | DMR (Methylation %) PHKG1 promoter region (20 μM CA, 3 h): −15.73% | DMR (Methylation %) PPARG promoter region (20 μM CA, 3 h): 0% | DMR (Methylation %) SDHA promoter region (20 μM CA, 3 h): 0% | DMR (Methylation %) SDHB promoter region (20 μM CA, 3 h): 0% | DMR (Methylation %) SPHK2 promoter region (20 μM CA, 3 h): 0% | DMR (Methylation %) UQCRC1 promoter region (20 μM CA, 3 h): −23.76% | DMR (Methylation %) VDAC2 promoter region (20 μM CA, 3 h): −27.41% | number of DMRs in promoter region, hyper-methylated (20 μM CA, 3 hours): 2,323 | number of DMRs in promoter region, hypo-methylated (20 μM CA, 3 hours): 12,431 | number of DMRs in promoter region, total (20 μM CA, 3 hours): 14,754 | DMR (Methylation %) ADRA1A promoter region (20 μM CA, 6 h): −41.25% | DMR (Methylation %) ADRA1B promoter region (20 μM CA, 6 h): −33.89% | DMR (Methylation %) ADRA1 promoter region (20 μM CA, 6 h): −41.25% | DMR (Methylation %) BCL6 promoter region (20 μM CA, 6 h): −43.30% | DMR (Methylation %) CACNA1D promoter region (20 μM CA, 6 h): −69.06% and −69.10% | DMR (Methylation %) CALML3 promoter region (20 μM CA, 6 h): −47.29% | DMR (Methylation %) CALML4 promoter region (20 μM CA, 6 h): −31.79% | DMR (Methylation %) CAMKK2 promoter region (20 μM CA, 6 h): −37.97% | DMR (Methylation %) COX7B promoter region (20 μM CA, 6 h): −83.31% | DMR (Methylation %) COX8A promoter region (20 μM CA, 6 h): −35.3% | DMR (Methylation %) CPT1A promoter region (20 μM CA, 6 h): −41.69% | DMR (Methylation %) CPT1C promoter region (20 μM CA, 6 h): −34.41% | DMR (Methylation %) CREB3L4 promoter region (20 μM CA, 6 h): −36.38% | DMR (Methylation %) CYP1A1 promoter region (20 μM CA, 6 h): −55.38% | DMR (Methylation %) ESR2 promoter region (20 μM CA, 6 h): −33.80% | DMR (Methylation %) FBP1 promoter region (20 μM CA, 6 h): −39.18% | DMR (Methylation %) FGF1 promoter region (20 μM CA, 6 h): −37.79% | DMR (Methylation %) FGF8 promoter region (20 μM CA, 6 h): −53.29% | DMR (Methylation %) FGFR2 promoter region (20 μM CA, 6 h): −47.13% | DMR (Methylation %) LDHA promoter region (20 μM CA, 6 h): −35.80% | DMR (Methylation %) LDHAL6A promoter region (20 μM CA, 6 h): −38.96% | DMR (Methylation %) LDHC promoter region (20 μM CA, 6 h): −31.45% | DMR (Methylation %) LEP promoter region (20 μM CA, 6 h): −35.18% | DMR (Methylation %) MIR29A promoter region (20 μM CA, 6 h): −32.98% | DMR (Methylation %) MIRLET7B promoter region (20 μM CA, 6 h): −34.85% | DMR (Methylation %) MTOR promoter region (20 μM CA, 6 h): −37.3% | DMR (Methylation %) NTRK3 promoter region (20 μM CA, 6 h): −49.89% | DMR (Methylation %) PDHA2 promoter region (20 μM CA, 6 h): −39.34% | DMR (Methylation %) PDHB promoter region (20 μM CA, 6 h): −42.31% | DMR (Methylation %) PHKG1 promoter region (20 μM CA, 6 h): −41.81% | DMR (Methylation %) PPARG promoter region (20 μM CA, 6 h): −37.32% | DMR (Methylation %) SDHA promoter region (20 μM CA, 6 h): −37.82% | DMR (Methylation %) SDHB promoter region (20 μM CA, 6 h): −39.54% | DMR (Methylation %) SPHK2 promoter region (20 μM CA, 6 h): −60.87%
